“Also recorded” adds a separate entry of the source. Read-outs that look alike come from different tables or passages of the source.
Columns and labels:
[1] = NIAID Antiviral Program for Pandemics primary assay (CPE/Tox), EV-68; details: CC50 µM, primary assay, EV-68
EV-68 [2] = assay: as above; details: Enterovirus D
[3] = test system: Eastern equine encephalitis virus; assay type: cell-based
[4] = test system: Middle East Respiratory Syndrome; assay type: cell-based
EV-D68 = assay: CPE inhibition assay against EV-D68 in Vero cells; assay type: cell-based; details: Enterovirus D, EVD68, read-out: IC50 for virus induced CPE inhibition
in vitro [5] = assay: in vitro
[6] = NIAID secondary assay, Neutral Red (CPE/Tox), EV-68
EV-68 [7] = assay: as above; details: Enterovirus D, EV68, read-out: EC50 μM
human echovirus-30 = assay: NIAID cytopathic effect assay, human echovirus-30; assay type: cell-based
EV-A71 replicon = EV-A71 replicon assay in HeLa cells; details: 1, 5 or 25 μM, 14 hours post transfection
[8] = NIAID secondary assay, Neutral Red (CPE/Tox), EV-71
EV-71 [9] = assay: as above; details: Enterovirus A, EV71, read-out: EC50 μM
[10] = NIAID secondary assay, Virus Yield Reduction, EV-68
EV-68 [11] = assay: as above; details: Enterovirus D, EV68, read-out: EC90 μM
human echovirus-11 = assay: NIAID cytopathic effect assay, human echovirus-11; assay type: cell-based
EV-A71 Δ2C^116-329 [12] = target: T1, EV-A71 Δ2C^116-329 (Human enterovirus 71, UniProt Q66478); assay: biochemical; assay type: biochemical
T1 construct: EV-A71 Δ2C (amino acids 116-329) was designed with; made in house; host or cells: E. coli Rosetta 2(DE3) pLysS, pMALc5x vector
T1 sequence (Q66478 1227-1440, stated change not applied): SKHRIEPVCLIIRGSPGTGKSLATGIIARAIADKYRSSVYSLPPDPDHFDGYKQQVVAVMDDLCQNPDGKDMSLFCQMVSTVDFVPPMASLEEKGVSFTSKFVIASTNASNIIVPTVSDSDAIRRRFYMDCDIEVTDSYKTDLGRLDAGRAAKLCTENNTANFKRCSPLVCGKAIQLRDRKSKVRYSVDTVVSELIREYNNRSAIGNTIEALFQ

EV-A71 = assay: CPE inhibition assay (Cell Titer Glo) against EV-A71 in Vero cells; assay type: cell-based, Enterovirus A71; details: for IC50: Enterovirus A, EVA71, EV-A71, Vero cells
PV-1 = assay type: cell-based, Poliovirus
influenza A (H1N1) = assay: NIAID cytopathic effect assay, influenza A (H1N1); assay type: cell-based
[13] = NIAID Antiviral Program for Pandemics primary assay (CPE/Tox), EV-71; details: CC50 µM, primary assay, EV-71
EV-71 [14] = assay: as above; details: Enterovirus A
[15] = test system: coxsackievirus-B3 (CV-B3); assay: CPE inhibition assay against CV-B3 in HeLa cells; assay type: cell-based
West Nile virus = assay: NIAID cytopathic effect assay, West Nile virus; assay type: cell-based
EV-71 [16] = assay: microbe, parasite or virus in culture; details: Enterovirus A, EV71, read-out: EC90 μM
CV-B3 = assay: NIAID cytopathic effect assay, CV-B3; assay type: cell-based, Coxsackievirus B3
EV-A71 Δ2C^116-329 [17] = target: T1, EV-A71 Δ2C^116-329; assay type: binding; details: 0.02 μM to 200 μM compound
in vitro [18] = details: African green monkey
[19] = test system: poliovirus Mahoney strain; assay: microbe, parasite or virus in culture; assay type: cell-based; details: Enterovirus C, Vero, read-out: IC50 for virus induced CPE inhibition

Cc1ccc2[nH]c(-c3ccc(NC(=O)c4cccs4)cc3)nc2c1 [Compound 36, N-[4-(5-methyl-1H-benzimidazol-2-yl)phenyl]-2-thiophenecarboxamide]
CC50 ([1]; Neutral Red (CPE/Tox)): 9 µM
CC50 ([1]; Visual (CPE/Tox)): 24 µM
EC50 (EV-68 [2]; EV68, read-out: EC50 μM, primary assay, EV-68, Neutral Red (CPE/Tox)): 0.39 µM
EC50 (EV-68 [2]; EV68, read-out: EC50 μM, primary assay, EV-68, Visual (CPE/Tox)): 0.52 µM
EC50 (EV-68 [2]; EV68|EVD68, read-out: EC50 against EV-D68, text, primary cytopathic effect assay): 0.39 to 0.52 µM
activity against Eastern equine encephalitis virus [3]: no activity
activity against Middle East Respiratory Syndrome [4]: no activity
IC50 (EV-D68): 0.85 µM
CC50 (in vitro [5]): 27 µM
CC50 [6]: 3.5 µM
EC50 (EV-68 [7]): 0.52 µM
activity against human echovirus-30 (human echovirus-30): no activity
number of reporter positive cells compared with the untreated control (EV-A71 replicon): no statistically significant difference
CC50 [8]: 25 µM
EC50 (EV-71 [9]): 1.7 µM
CC50 [10]: 9.4 µM
EC90 (EV-68 [11]): 0.59 µM
activity against human echovirus-11 (human echovirus-11): no activity
IC50 (EV-A71 Δ2C^116-329 [12]): 23.4 µM
dose dependence of inhibition of the ATPase function of Δ2C^116-329 (EV-A71 Δ2C^116-329 [12]; dose response): clear dose-dependent response
Selectivity Index (EV-A71): 29.59
selectivity index (EV-A71): 29.6
IC50 (EV-A71; read-out: IC50 for inhibition of virus-induced CPE): 2.66 µM
IC50 (EV-A71; Table 8, virus-induced CPE, read-out: IC50): 2.66 µM
activity against PV-1 (PV-1): no activity
activity against influenza A (H1N1) (influenza A (H1N1)): no activity
CC50 ([13]; Neutral Red (CPE/Tox)): 42 µM
CC50 ([13]; Visual (CPE/Tox)): 32 µM
EC50 (EV-71 [14]; EV71, read-out: EC50 μM, primary assay, EV-71, Neutral Red (CPE/Tox)): 4.7 µM
EC50 (EV-71 [14]; EV71, read-out: EC50 μM, primary assay, EV-71, Visual (CPE/Tox)): > 32 µM
EC50 (EV-71 [14]; EV71|EVA71, read-out: EC50 against EV-A71, text, primary cytopathic effect assay): 4.2 µM
inhibition of CV-B3 [15]: did not inhibit; also recorded: not active
activity against West Nile virus (West Nile virus): no activity
EC90 (EV-71 [16]): 3.2 µM
activity against CV-B3 (CV-B3): no activity
shift in melting temperature (Tm) of Δ2C^116-329 (EV-A71 Δ2C^116-329 [17]): dose-dependent increase in the Tm
CC50 at 3 days (in vitro [18]; CC50): 78.7 µM
CC50 at 3 days (in vitro [18]; CC50 (μM)): 78.7 µM
IC50 [19]: 1.7 µM
